Assay results reported in patent publication US11191762B2, “Alkyl substituted triazole compounds as agonists of the APJ Receptor” (priority 2016, dated 2021).

Target: human APJ receptor (Homo sapiens (Human), UniProt P35414)
Test: biochemical
Format: biochemical
Details: not given
In short: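 [35S]GTPγS binding to membranes from CHO cells stably expressing human APJ, captured on WGA PS beads (5 μg/well). Buffer: 20 mM HEPES pH 7.5, 5 mM MgCl2, 100 mM NaCl, 0.1% BSA, with 3 μM GDP and 0.1 nM [35S]GTPγS final; compounds tested as 22-point 2-fold dilutions.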

Chain of human APJ receptor (P35414 whole entry): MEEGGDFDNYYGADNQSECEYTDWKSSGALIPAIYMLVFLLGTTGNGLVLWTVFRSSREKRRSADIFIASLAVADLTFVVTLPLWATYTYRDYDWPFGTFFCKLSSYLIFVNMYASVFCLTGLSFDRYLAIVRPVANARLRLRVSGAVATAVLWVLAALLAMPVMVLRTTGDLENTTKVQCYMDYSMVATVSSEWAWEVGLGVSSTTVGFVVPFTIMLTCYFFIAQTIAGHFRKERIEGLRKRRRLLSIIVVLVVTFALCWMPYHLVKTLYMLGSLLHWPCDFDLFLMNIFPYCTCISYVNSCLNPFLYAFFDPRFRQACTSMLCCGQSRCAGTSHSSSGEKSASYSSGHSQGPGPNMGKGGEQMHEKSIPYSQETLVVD

Question: With `COc1cccc(OC)c1-n1c(COC(F)F)nnc1NS(=O)(=O)[C@@H](C)[C@H](OC)c1ncc(Cl)cn1` [Example 65.0, (1R,2S)-1-(5-chloro-2-pyrimidinyl)-N-(5-((difluoromethoxy)methyl)-4-(2,6-dimethoxyphenyl)-4H-1,2,4-triazol-3-yl)-1-methoxy-2-propanesulfonamide] as the compound, how does the EC50 read?
Answer: 5.7 nM

Same assay, conditions: [35S]GTPγS binding, membranes from CHO cells stably expressing human APJ receptor; read-out: Activity hAPJ SPA EC50 IP

Question: Which EC50 does the source give for `CO[C@H](c1ncc(Cl)cn1)[C@H](C)S(=O)(=O)Nc1nnc(C)n1C1(C)CC1` [Example 55.0, (1R,2S)-1-(5-chloropyrimidin-2-yl)-1-methoxy-N-(5-methyl-4-(1-methylcyclopropyl)-4H-1,2,4-triazol-3-yl)propane-2-sulfonamide] here?
Answer: 540 nM

Question: `COCc1nnc(NS(=O)(=O)[C@@H](C)[C@H](OC)c2ncc(Cl)cn2)n1C1(C)CC1` [Example 59.0, (1R,2S)-1-(5-chloropyrimidin-2-yl)-1-methoxy-N-(5-(methoxymethyl)-4-(1-methylcyclopropyl)-4H-1,2,4-triazol-3-yl)propane-2-sulfonamide] was tested. Which EC50 did it give?
Answer: 33 nM

Question: How did the EC50 turn out when `COCc1nnc(NS(=O)(=O)[C@@H](C)[C@H](OC)c2ncc(Cl)cn2)n1C1CCOCC1` [Example 63.0, (1R, 2S)-1-(5-chloropyrimidin-2-yl)-1-methoxy-N-(5-(methoxymethyl)-4-(tetrahydro-2H-pyran-4-yl)-4H-1,2,4-triazol-3-yl)propane-2-sulfonamide] was run?
Answer: 10 nM

Question: For `COc1ncnc(OC)c1-n1c(CC(F)(F)F)nnc1NS(=O)(=O)[C@@H](C)[C@H](OC)c1ncc(Cl)cn1` [Example 67.0, (1R,2S)-1-(5-chloropyrimidin-2-yl)-N-(4-(4,6-dimethoxypyrimidine-5-yl)-5-(2.2.2-trifluoroethyl)-4H-1.2.4-triazol-3-yl)-1-methoxypropane-2-sulfonamide], which EC50 is on record?
Answer: 230 nM

Same assay, conditions: read-out: Activity hAPJ SPA EC50 IP

Question: `COCc1nnc(NS(=O)(=O)[C@@H](C)[C@H](OC)c2ncc(Cl)cn2)n1-c1c(OC)ncnc1OC` [Example 58.0, (1R,2S)-1-(5-chloropyrimidin-2yl)-N-(4-(4.6-dimethoxypyrimidin-5-yl)-5-(methoxymethyl)-4H-l,2,4-triazol-3-yl)-1-methoxypropane-2-sulfonamide] was tested. Which EC50 did it give?
Answer: 330 nM

Question: Which EC50 does the source give for `COCc1nnc(NS(=O)(=O)[C@@H](C)[C@H](OC)c2ncc(C)cn2)n1-c1c(OC)cccc1OC` [Example 60.0, (1R,2S)-N-(4-(2.6-dimethoxyphenyl)-5-(methoxymethyl)-4H-1.2,4-triazol-3-yl)-1-methoxy-1-(5-methylpyrimidin-2-yl)propane-2-sulfonamide] here?
Answer: 22 nM

Question: For `COCc1nnc(NS(=O)(=O)[C@@H](C)[C@H](C)c2ncc(C)cn2)n1-c1c(OC)cccc1OC` [Example 61.0, (2S,3R)-N-(4-(2,6-dimethoxyphenyl)-5-(methoxymethyl)-4H-1.2.4-triazol-3-yl)-3-(5-methylpyrimidin-2-yl)butane-2-sulfonamide], which EC50 is on record?
Answer: 6.7 nM

Question: `COCc1nnc(NS(=O)(=O)[C@@H](C)[C@@H](OC(C)C)c2ncc(C)cn2)n1-c1c(OC)cccc1OC` [Example 62.0, (1S,2S)-N-(4-(2,6-dimethoxyphenyl)-5-(methoxymethyl)-4H-1,2,4-triazol-3-yl)-1-isopropoxy-1-(5-methylpyrimidin-2-yl)propane-2-sulfonamide] was tested. Which EC50 did it give?
Answer: 1000 nM

Question: For `COc1cccc(OC)c1-n1c(CO)nnc1NS(=O)(=O)[C@@H](C)[C@H](OC)c1ncc(Cl)cn1` [Example 64.0, (1R,2S)-1-(5-chloropyrimidin-2-yl)-N-(4-(2,6-dimethoxyphenyl)-5-(hydroxymethyl)-4H-1.2.4-triazol-3-yl)-1-methoxypropane-2-sulfonamide], which EC50 is on record?
Answer: 20 nM

Question: With `COCc1nnc(NS(=O)(=O)[C@@H](C)[C@H](C)c2ncc(F)cn2)n1-c1c(OC)cccc1OC` [Example 68.0, (2S,3R)-N-(4-(2,6-dimethoxyphenyl)-5-(methoxymethyl)-4H-1,2,4-triazol-3-yl)-3-(5-fluoropyrimidin-2-yl)butane-2-sulfonamide] as the compound, how does the EC50 read?
Answer: 33 nM
